Measurements from patent publication US10639376B2, “Pharmaceutical compositions having improved storage stability” (ALKERMES PHARMA IRELAND LIMITED, priority 2012, dated 2020).

Test: Solubility of Compound 1 in vehicles with various amounts of sorbitan monolaurate
Type: physicochemical
Settings: from trend of Compound 1 concentration as a function of pH at a given SML concentration; read-out: estimated pKa
Description: The solubility of Compound 1 was determined in vehicles containing 10 mM pH 7 phosphate buffer, 0.2% polysorbate 20 (PS), 0.8% saline, and various amounts of sorbitan monolaurate (SML). […] At a given SML concentration, the trend of Compound 1 concentration as a function of pH is consistent with an estimated pKa of ˜7. […] The degradation of dissolved Compound 1 was further followed in the drug vehicle containing 0.50% SML and 0.2% PS.

For CCCCCCCCCCCC(=O)OCN1C(=O)CCc2ccc(OCCCCN3CCN(c4cccc(Cl)c4Cl)CC3)cc21 [Compound 1], which pKa is on record?
Its pKa is about 7.
